Source: patent US20230085307A1, “PYRIDAZINONE COMPOUND AND HERBICIDE” (NISSAN CHEMICAL CORPORATION, priority 2019, published 2023)

Experiments:
lambsquarters [1] = assay: Test Example 5: herbicidal effect by foliage application, plastic box (Table 20, symbol O); assay type: in vivo, lambsquarters (Chenopodium album); settings: 320 g/ha; for O: lambsquarters, herbicidal effect grade: foliage application, three weeks after application
In short: (§1)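 Sow seeds spot-wise in sterilized diluvial soil; cover with ~1.5 cm soil. Grow 14 days in greenhouse, 25° C. to 30° C. Spray foliage with emulsion diluted to predetermined amount. Rate effect after 3 weeks.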

barnyard grass [2] = assay: Test Example 3: herbicidal effect by foliage application, Wagner pot (Table 18, symbol H); assay type: in vivo, barnyard grass (Echinochloa crus-galli); settings: for herbicidal effect on H: barnyard grass: amount of applied herbicide 320 g/ha
In short: (§2)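 Plants were sown in alluvial soil held under 0.1–0.5 cm standing water and grown 14 days in a greenhouse at 25–30 °C. An emulsifiable formulation, water-diluted to the set dose, was then sprayed onto the foliage, and effects were scored three weeks later using previously defined criteria.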

persian speedwell = assay: Test Example 5: herbicidal effect by foliage application, plastic box (Table 20, symbol R); assay type: in vivo, Persian speedwell (Veronica persica); settings: 320 g/ha
In short: as §1

wild oat = assay: Test Example 5: herbicidal effect by foliage application, plastic box (Table 20, symbol I); assay type: in vivo, wild oat (Avena fatua); settings: 320 g/ha
In short: as §1

late watergrass [3] = assay: Test Example 1: herbicidal activity, application before weed generation under submerged conditions (Table 16, symbol A); assay type: in vivo, late watergrass (Echinochloa oryzicola); settings: amount of applied herbicide 320 g/ha
In short: (§3)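 Alluvial soil was flooded to 4 cm depth, weed seeds were sown mixed and 2.5-leaf rice seedlings were transplanted. On sowing day, the compound's emulsion, diluted in water to a set dose, was applied to the water surface. Plants grew at 25–30 °C and were scored 0–5 after three weeks.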

late watergrass [4] = assay: Test Example 2: herbicidal activity, application during weed generation under submerged conditions (Table 17, symbol A); assay type: in vivo, late watergrass (Echinochloa oryzicola); settings: AAH 320 g/ha; application during weed generation, submerged conditions
In short: (§4)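 Mixed weed seedlings in alluvial soil under a 4 cm water layer, greenhouse-grown at 25–30° C. Compound given as a diluted emulsion into the floodwater at the 1–2 leaf stage; response graded after three weeks.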

windgrass = assay: Test Example 5: herbicidal effect by foliage application, plastic box (Table 20, symbol L); assay type: in vivo, windgrass (Apera spica-venti); settings: 320 g/ha
In short: as §1

rice flat sedge = assay: Test Example 3: herbicidal effect by foliage application, Wagner pot (Table 18, symbol E); assay type: in vivo, rice flat sedge (Cyperus iria); settings: for herbicidal effect on E: rice flat sedge: amount of applied herbicide 320 g/ha
In short: as §2

oval-leafed pondweed [5] = assay: Test Example 2: herbicidal activity, application during weed generation under submerged conditions (Table 17, symbol C); assay type: in vivo, oval-leafed pondweed (Monochoria vaginalis); settings: AAH 320 g/ha; application during weed generation, submerged conditions
In short: as §4

Chinese sprangletop = assay: Test Example 3: herbicidal effect by foliage application, Wagner pot (Table 18, symbol D); assay type: in vivo, chinese sprangletop (Leptochloa chinensis); settings: for herbicidal effect on D: Chinese sprangletop: amount of applied herbicide 320 g/ha
In short: as §2

Japanese bulrush [6] = assay: Test Example 1: herbicidal activity, application before weed generation under submerged conditions (Table 16, symbol B); assay type: in vivo, Japanese bulrush (Schoenoplectus juncoides); settings: amount of applied herbicide 320 g/ha
In short: as §3

Italian ryegrass = assay: Test Example 5: herbicidal effect by foliage application, plastic box (Table 20, symbol K); assay type: in vivo, Italian ryegrass (Lolium multiflorum); settings: 320 g/ha
In short: as §1

oval-leafed pondweed [7] = assay: Test Example 1: herbicidal activity, application before weed generation under submerged conditions (Table 16, symbol C); assay type: in vivo, oval-leafed pondweed (Monochoria vaginalis); settings: amount of applied herbicide 320 g/ha
In short: as §3

green foxtail [8] = assay: Test Example 5: herbicidal effect by foliage application, plastic box (Table 20, symbol G); assay type: in vivo, green foxtail (Setaria viridis); settings: 320 g/ha; for G: green foxtail, herbicidal effect grade: foliage application, three weeks after application
In short: as §1

chickweed = assay: Test Example 5: herbicidal effect by foliage application, plastic box (Table 20, symbol P); assay type: in vivo, common chickweed (Stellaria media); settings: 320 g/ha
In short: as §1

velvetleaf [9] = assay: Test Example 5: herbicidal effect by foliage application, plastic box (Table 20, symbol M); assay type: in vivo, velvetleaf (Abutilon theophrasti); settings: 320 g/ha; for M: velvetleaf, herbicidal effect grade: foliage application, three weeks after application
In short: as §1

southern crabgrass [10] = assay: Test Example 5: herbicidal effect by foliage application, plastic box (Table 20, symbol F); assay type: in vivo, southern crabgrass (Digitaria ciliaris); settings: 320 g/ha; for F: southern crabgrass, herbicidal effect grade: foliage application, three weeks after application
In short: as §1

blackgrass = assay: Test Example 5: herbicidal effect by foliage application, plastic box (Table 20, symbol J); assay type: in vivo, blackgrass (Alopecurus myosuroides); settings: 320 g/ha
In short: as §1

Japanese bulrush [11] = assay: Test Example 2: herbicidal activity, application during weed generation under submerged conditions (Table 17, symbol B); assay type: in vivo, Japanese bulrush (Schoenoplectus juncoides); settings: AAH 320 g/ha; application during weed generation, submerged conditions
In short: as §4

barnyard grass [12] = assay: Test Example 5: herbicidal effect by foliage application, plastic box (Table 20, symbol H); assay type: in vivo, barnyard grass (Echinochloa crus-galli); settings: 320 g/ha; for H: barnyard grass, herbicidal effect grade: foliage application, three weeks after application
In short: as §1

redroot pigweed [13] = assay: Test Example 5: herbicidal effect by foliage application, plastic box (Table 20, symbol N); assay type: in vivo, redroot pigweed (Amaranthus retroflexus); settings: 320 g/ha; for N: redroot pigweed, herbicidal effect grade: foliage application, three weeks after application
In short: as §1

green foxtail [14] = assay: Test Example 4: herbicidal effect by soil treatment (Table 19, symbol G); assay type: in vivo, green foxtail (Setaria viridis); settings: amount of applied herbicide 320 g/ha
In short: (§5)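 Soil-surface application: an emulsion agent diluted with water to the predetermined dose is sprayed uniformly over seeds lying under roughly 1.5 cm of sterilized diluvial soil. Boxes stay in a greenhouse at 25° C. to 30° C. Three weeks later, each species is graded on previously defined criteria.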

barnyard grass [15] = assay: Test Example 4: herbicidal effect by soil treatment (Table 19, symbol H); assay type: in vivo, barnyard grass (Echinochloa crus-galli); settings: amount of applied herbicide 320 g/ha
In short: as §5

southern crabgrass [16] = assay: Test Example 4: herbicidal effect by soil treatment (Table 19, symbol F); assay type: in vivo, southern crabgrass (Digitaria ciliaris); settings: amount of applied herbicide 320 g/ha
In short: as §5

redroot pigweed [17] = assay: Test Example 4: herbicidal effect by soil treatment (Table 19, symbol N); assay type: in vivo, redroot pigweed (Amaranthus retroflexus); settings: amount of applied herbicide 320 g/ha
In short: as §5

lambsquarters [18] = assay: Test Example 4: herbicidal effect by soil treatment (Table 19, symbol O); assay type: in vivo, lambsquarters (Chenopodium album); settings: amount of applied herbicide 320 g/ha
In short: as §5

velvetleaf [19] = assay: Test Example 4: herbicidal effect by soil treatment (Table 19, symbol M); assay type: in vivo, velvetleaf (Abutilon theophrasti); settings: amount of applied herbicide 320 g/ha
In short: as §5

[20] = foliage application, three weeks after application
[21] = foliage application after 14-day growth, evaluated three weeks after application

| Structure (SMILES) | O: lambsquarters, herbicidal effect grade (lambsquarters [1]) | herbicidal effect on H: barnyard grass (barnyard grass [2]) | Herbicidal effect, A: late watergrass (late watergrass [3]) | herbicidal effect rating, A: late watergrass (late watergrass [4]) | herbicidal effect on E: rice flat sedge (rice flat sedge) | herbicidal effect rating, C: oval-leafed pondweed (oval-leafed pondweed [5]) | herbicidal effect on D: Chinese sprangletop (Chinese sprangletop) | Herbicidal effect, B: Japanese bulrush (Japanese bulrush [6]) | Herbicidal effect, C: oval-leafed pondweed (oval-leafed pondweed [7]) | G: green foxtail, herbicidal effect grade (green foxtail [8]) | M: velvetleaf, herbicidal effect grade (velvetleaf [9]) | F: southern crabgrass, herbicidal effect grade (southern crabgrass [10]) | herbicidal effect rating, B: Japanese bulrush (Japanese bulrush [11]) | H: barnyard grass, herbicidal effect grade (barnyard grass [12]) | N: redroot pigweed, herbicidal effect grade (redroot pigweed [13]) | also measured |
| --- | --- | --- | --- | --- | --- | --- | --- | --- | --- | --- | --- | --- | --- | --- | --- | --- |
| CCCC(=O)Oc1c(CC)nn(C)c(=O)c1-c1c(-c2ccc(Cl)cc2)sc2ccc(F)cc12 [2-409] | 4 (Herbicidal rate of 70% or more and less than 90%) | 5 (Herbicidal rate of 90% or more (almost completely withered)) | 3 (Herbicidal rate of 40% or more and less than 70%) | 2 (Herbicidal rate of 20% or more and less than 40%) | 5 (Herbicidal rate of 90% or more (almost completely withered)) | 3 (Herbicidal rate of 40% or more and less than 70%) | 4 (Herbicidal rate of 70% or more and less than 90%) | 3 (Herbicidal rate of 40% or more and less than 70%) | 2 (Herbicidal rate of 20% or more and less than 40%) | 4 (Herbicidal rate of 70% or more and less than 90%) | 5 (Herbicidal rate of 90% or more (almost completely withered)) | 3 (Herbicidal rate of 40% or more and less than 70%) | 3 (Herbicidal rate of 40% or more and less than 70%) | 3 (Herbicidal rate of 40% or more and less than 70%) | 5 (Herbicidal rate of 90% or more (almost completely withered)) | R: persian speedwell, herbicidal effect grade (persian speedwell; [20]): 4 (Herbicidal rate of 70% or more and less than 90%); I: wild oat, herbicidal effect grade (wild oat; [20]): 0 (Herbicidal rate of 5% or less (almost no effect)); L: windgrass, herbicidal effect grade (windgrass; [20]): 0 (Herbicidal rate of 5% or less (almost no effect)); K: Italian ryegrass, herbicidal effect grade (Italian ryegrass; [20]): 1 (Herbicidal rate of 5% or more and less than 20%); P: chickweed, herbicidal effect grade (chickweed; [20]): 4 (Herbicidal rate of 70% or more and less than 90%); J: blackgrass, herbicidal effect grade (blackgrass; [20]): 0 (Herbicidal rate of 5% or less (almost no effect)) |
| COc1ccc2c(-c3c(OC(=O)C(C)c4ccccc4)c(C)nn(C)c3=O)c(-c3ccccc3OC)sc2c1 (stereo not drawn) [3-157] |  |  | 5 (Herbicidal rate of 90% or more (almost completely withered)) | 4 (Herbicidal rate of 70% or more and less than 90%) |  | 4 (Herbicidal rate of 70% or more and less than 90%) |  | 3 (Herbicidal rate of 40% or more and less than 70%) | 3 (Herbicidal rate of 40% or more and less than 70%) |  |  |  | 3 (Herbicidal rate of 40% or more and less than 70%) |  |  | herbicidal effect on O: lambsquarters (evaluation grade 0-5) (lambsquarters [1]; [21]): 4 (Herbicidal rate of 70% or more and less than 90%); herbicidal effect on barnyard grass (H) (barnyard grass [2]; 320 g/ha): 5 (Herbicidal rate of 90% or more (almost completely withered)); herbicidal effect on R: persian speedwell (evaluation grade 0-5) (persian speedwell; [21]): 4 (Herbicidal rate of 70% or more and less than 90%); herbicidal effect on I: wild oat (evaluation grade 0-5) (wild oat; [21]): 3 (Herbicidal rate of 40% or more and less than 70%); herbicidal effect on L: windgrass (evaluation grade 0-5) (windgrass; [21]): 5 (Herbicidal rate of 90% or more (almost completely withered)); herbicidal effect on rice flat sedge (E) (rice flat sedge; 320 g/ha): 3 (Herbicidal rate of 40% or more and less than 70%); herbicidal effect on Chinese sprangletop (D) (Chinese sprangletop; 320 g/ha): 3 (Herbicidal rate of 40% or more and less than 70%); herbicidal effect on K: Italian ryegrass (evaluation grade 0-5) (Italian ryegrass; [21]): 3 (Herbicidal rate of 40% or more and less than 70%); herbicidal effect on G: green foxtail (evaluation grade 0-5) (green foxtail [8]; [21]): 4 (Herbicidal rate of 70% or more and less than 90%); herbicidal effect on P: chickweed (evaluation grade 0-5) (chickweed; [21]): 4 (Herbicidal rate of 70% or more and less than 90%); herbicidal effect on M: velvetleaf (evaluation grade 0-5) (velvetleaf [9]; [21]): 5 (Herbicidal rate of 90% or more (almost completely withered)); herbicidal effect on F: southern crabgrass (evaluation grade 0-5) (southern crabgrass [10]; [21]): 4 (Herbicidal rate of 70% or more and less than 90%); herbicidal effect on J: blackgrass (evaluation grade 0-5) (blackgrass; [21]): 4 (Herbicidal rate of 70% or more and less than 90%); herbicidal effect on H: barnyard grass (evaluation grade 0-5) (barnyard grass [12]; [21]): 5 (Herbicidal rate of 90% or more (almost completely withered)); herbicidal effect on N: redroot pigweed (evaluation grade 0-5) (redroot pigweed [13]; [21]): 4 (Herbicidal rate of 70% or more and less than 90%) |
| COCCS(=O)(=O)c1ccc(-c2sc3ccc(F)cc3c2-c2c(O)c(C)nn(C)c2=O)cc1 [2-455] | 3 (Herbicidal rate of 40% or more and less than 70%) | 5 (Herbicidal rate of 90% or more (almost completely withered)) | 3 (Herbicidal rate of 40% or more and less than 70%) | 3 (Herbicidal rate of 40% or more and less than 70%) | 0 (Herbicidal rate of 5% or less (almost no effect)) | 0 (Herbicidal rate of 5% or less (almost no effect)) | 2 (Herbicidal rate of 20% or more and less than 40%) | 0 (Herbicidal rate of 5% or less (almost no effect)) | 0 (Herbicidal rate of 5% or less (almost no effect)) | 3 (Herbicidal rate of 40% or more and less than 70%) | 4 (Herbicidal rate of 70% or more and less than 90%) | 4 (Herbicidal rate of 70% or more and less than 90%) | 0 (Herbicidal rate of 5% or less (almost no effect)) | 4 (Herbicidal rate of 70% or more and less than 90%) | 5 (Herbicidal rate of 90% or more (almost completely withered)) | herbicidal effect, G: green foxtail (green foxtail [14]): 4 (Herbicidal rate of 70% or more and less than 90%); herbicidal effect, H: barnyard grass (barnyard grass [15]): 0 (Herbicidal rate of 5% or less (almost no effect)); herbicidal effect, F: southern crabgrass (southern crabgrass [16]): 4 (Herbicidal rate of 70% or more and less than 90%); herbicidal effect, N: redroot pigweed (redroot pigweed [17]): 4 (Herbicidal rate of 70% or more and less than 90%); herbicidal effect, O: lambsquarters (lambsquarters [18]): 3 (Herbicidal rate of 40% or more and less than 70%); herbicidal effect, M: velvetleaf (velvetleaf [19]): 1 (Herbicidal rate of 5% or more and less than 20%) |
